These results are taken from PMC6835510, “Magnificamide, a β-Defensin-Like Peptide from the Mucus of the Sea Anemone Heteractis magnifica, Is a Strong Inhibitor of Mammalian α-Amylases” (Marine Drugs, 2019).

Bridge positions count the residues as written; N and C are the ends. Ends that are not written are not given here.

Experiment [1] has as its target T1, porcine pancreatic α-amylase (PPA) (Sus scrofa, UniProt P00690).
T1 construct: purchased Sigma Aldrich A4268
T1 sequence (P00690 16-511): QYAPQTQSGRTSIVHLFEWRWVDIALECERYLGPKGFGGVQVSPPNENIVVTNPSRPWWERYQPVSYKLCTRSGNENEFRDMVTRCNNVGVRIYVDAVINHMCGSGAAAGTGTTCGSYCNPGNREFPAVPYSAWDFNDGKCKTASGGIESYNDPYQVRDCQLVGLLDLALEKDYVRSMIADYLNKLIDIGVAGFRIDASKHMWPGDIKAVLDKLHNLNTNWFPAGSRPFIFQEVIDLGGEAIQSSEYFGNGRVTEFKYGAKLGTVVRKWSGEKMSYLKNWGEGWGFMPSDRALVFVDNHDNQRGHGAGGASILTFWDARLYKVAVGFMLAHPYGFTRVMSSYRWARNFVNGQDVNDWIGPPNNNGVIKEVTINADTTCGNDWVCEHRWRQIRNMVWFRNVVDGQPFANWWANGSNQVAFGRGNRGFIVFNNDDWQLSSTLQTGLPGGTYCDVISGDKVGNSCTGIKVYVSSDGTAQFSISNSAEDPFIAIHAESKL
Briefly: PPA inhibitory activity of RP-HPLC fractions. It is filed as biochemical. The note with it: 10 µL sample, PPA 1 µg/mL, 50 mM sodium phosphate, 100 mM NaCl, pH 7.0, 10 min RT, CNPG3 1 mM, 405 nm. The procedure:
The porcine α-amylase (PPA) inhibitory activity of the peptide fractions obtained by RP-HPLC was tested by the following procedure. Experimental samples (10 µL) were added to 80 µL of 50 mM sodium phosphate, 100 mM sodium chloride buffer (pH 7.0), and PPA (A4268) (1 µg/mL) (Sigma Aldrich, St. Louis, MO, USA), and incubated for 10 min at RT. The substrate solution, 2-chloro-4-nitrophenyl α-D-maltotrioside (CNPG3) (Sigma Aldrich, St. Louis, MO, USA), was added to the reaction mixture (1 mM) and incubated for 10 min at RT. The optical absorption was measured on an xMark microplate spectrophotometer (BioRad, Hercules, CA, USA) at 405 nm.

In experiment [2] the test system is Bacillus subtilis ATCC6633. Briefly: Antimicrobial activity, agar dilution method. The note with it: 1, 5, 10, 20 µM; 100 µL in 6 mm agar wells; 18 h, 37 °C; clear zone; three independent assays. It is filed as cell-based. The protocol: (§1) The antimicrobial activity of r-magnificamide was tested against Gram-positive (Staphylococcus aureus ATCC 21027 and Bacillus subtilis ATCC6633), Gram-negative bacteria (Escherichia coli VKPM B-7935 and Pseudomonas aeruginosa ATCC 27853), and the fungus Candida albicans KMM 455 by the agar dilution method. Microbial strains were taken from the American Type Culture Collection (ATCC), Russian National Collection of Industrial Microorganisms (VKPM), and Collection of Marine Microorganisms (KMM) (Pacific Institute of Bioorganic Chemistry FEB RAS). To obtain a microbial lawn, 0.1 mL of a cell suspension (0.5 × 10^8 cells/mL) was uniformly distributed on agar surface in Petri dishes (15 g/L tryptic soy broth, 2 g/L bacto yeast extract, 1 g/L glucose, and 20 g/L agar for bacteria; for fungi 10 g/L of glucose was added). Wells with a diameter of 6 mm were punched into the agar and filled with 100 µL of the peptide solution at concentrations 1, 5, 10, and 20 µM. The plates were then incubated for 18 h at 37 °C for bacteria, and at 30 °C for the fungus. Minimum inhibitory concentration was determined by measuring the clear zone of inhibition around each well. All assays were performed independently three times.
On the technique in general: Agar dilution tests growth on a series of plates holding different concentrations.

Experiment [3] concerns Candida albicans KMM 455. The experiment is described as follows: Antimicrobial activity, agar dilution method. The experiment is classed as cell-based. The note with it: 1, 5, 10, 20 µM; 100 µL in 6 mm agar wells; 18 h, 30 °C; clear zone; three independent assays. The procedure: as §1
Experiment [4] deals with Escherichia coli VKPM B-7935. The experiment is described as follows: Antimicrobial activity, agar dilution method. It is filed as cell-based. Particulars: 1, 5, 10, 20 µM; 100 µL in 6 mm agar wells; 18 h, 37 °C; clear zone; three independent assays. The procedure: as §1
Experiment [5] has as its system Pseudomonas aeruginosa ATCC 27853. Briefly: Antimicrobial activity, agar dilution method. The note with it: 1, 5, 10, 20 µM; 100 µL in 6 mm agar wells; 18 h, 37 °C; clear zone; three independent assays. It is filed as cell-based. The protocol:
as §1

The subject of experiment [6] is Staphylococcus aureus ATCC 21027. The experiment is described as follows: Antimicrobial activity, agar dilution method. It is filed as cell-based. The note with it: 1, 5, 10, 20 µM; 100 µL in 6 mm agar wells; 18 h, 37 °C; clear zone; three independent assays. The procedure:
as §1

As for “SEGTSCYIYHGVYGICKAKCAEDMKAMAGMGVCEGDLCCYKTPW (disulfide 6-38, 16-33, 20-39) [r-magnificamide]”, in experiment [1], the “PPA inhibition by RP-HPLC fraction” value is “inhibited PPA”. For the same sequence, the “Antimicrobial activity, B. subtilis” value in experiment [2] was “Not active”. Moreover, in experiment [3], the “Antimicrobial activity, C. albicans” value is listed as “Not active”. Also, the “Antimicrobial activity, E. coli” value in experiment [4] was “Not active”. Besides, the “Antimicrobial activity, P. aeruginosa” value in experiment [5] is “Not active”. Moreover, the “Antimicrobial activity, S. aureus” value in experiment [6] is “Not active”.
